One test deals with T1, full-length human EphB4 (Homo sapiens, UniProt P54760).
T1 construct: stably transfected to overexpress full-length human EphB4; host or cells: Mouse embryonic fibroblast cells
T1 sequence (P54760 16-987): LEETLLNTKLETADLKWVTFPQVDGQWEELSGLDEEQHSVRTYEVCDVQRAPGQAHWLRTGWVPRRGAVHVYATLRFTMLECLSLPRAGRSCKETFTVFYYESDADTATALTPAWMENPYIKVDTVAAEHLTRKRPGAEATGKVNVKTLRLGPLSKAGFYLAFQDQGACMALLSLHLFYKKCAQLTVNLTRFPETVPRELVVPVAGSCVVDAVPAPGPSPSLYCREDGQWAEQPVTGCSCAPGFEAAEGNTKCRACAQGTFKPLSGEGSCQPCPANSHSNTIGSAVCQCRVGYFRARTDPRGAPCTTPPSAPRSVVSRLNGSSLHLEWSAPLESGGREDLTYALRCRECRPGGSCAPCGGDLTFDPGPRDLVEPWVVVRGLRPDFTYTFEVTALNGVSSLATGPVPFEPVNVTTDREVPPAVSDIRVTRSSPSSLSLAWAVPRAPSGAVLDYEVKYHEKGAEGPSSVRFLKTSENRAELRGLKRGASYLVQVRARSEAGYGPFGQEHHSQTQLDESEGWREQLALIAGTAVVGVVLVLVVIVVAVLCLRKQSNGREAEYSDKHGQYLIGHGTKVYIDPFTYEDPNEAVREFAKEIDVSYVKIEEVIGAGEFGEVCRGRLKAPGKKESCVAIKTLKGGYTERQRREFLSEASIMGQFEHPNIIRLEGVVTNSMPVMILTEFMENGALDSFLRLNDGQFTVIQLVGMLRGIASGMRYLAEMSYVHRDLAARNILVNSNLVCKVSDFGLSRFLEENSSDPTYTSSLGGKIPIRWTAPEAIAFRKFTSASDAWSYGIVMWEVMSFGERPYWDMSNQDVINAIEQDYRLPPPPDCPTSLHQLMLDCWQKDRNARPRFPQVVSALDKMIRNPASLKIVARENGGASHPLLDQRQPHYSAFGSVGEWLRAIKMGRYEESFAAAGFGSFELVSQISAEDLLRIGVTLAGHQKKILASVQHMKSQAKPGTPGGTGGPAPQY
Put plainly: Cellular phosphorylation assay (sandwich ELISA, ProQinase). Conditions: mouse embryonic fibroblast cells overexpressing EphB4, stimulated with murine ephrinB2-Fc, read-out: cell IC50. The format is cell-based. Here is the method:
Cellular phosphorylation assays: The cellular phosphorylation experiments were performed at ProQinase GmbH. Mouse embryonic fibroblast cells, stably transfected to overexpress full-length human EphB4, were plated at 4×10^4 cells/well in DMEM supplemented with 10% FCS in 48-well culture dishes. Medium was replaced by DMEM without FCS before test compounds prediluted in 100% DMSO were added (final DMSO concentration of 1 %). After incubation for 90 min at 37 °C, cells were stimulated for 2 h at 4 °C using murine ephrinB2-Fc at a final concentration of 2 µg/ml. Quantification of EphB4 phosphorylation was assessed in a 96-well plate via sandwich ELISA using a myc capture antibody and an antiphosphotyrosine detection antibody. Table 4: Cell IC50 (µmol/l) in cells overexpressing EphB4
In general terms: In an ELISA, binding on a coated surface is turned into a signal by an enzyme label.

For test [1], the system named is A498 (kidney cancer) cells. As to the kind of experiment: Cell culture and GI50 determination (resazurin), A-498. The format is cell-based. Conditions: Homo sapiens, A-498, 48h incubation. How it is done: Krek (Institute of Cell Biology, ETH Zurich) were cultured in Dulbelcco's modified Eagle's medium (DMEM) supplemented with 10% (v/v) fetal bovine serum. K562 leukemia cells obtained from Dr. Silvio Hemmi (Institute of Molecular Life Sciences, UZH) were cultured using RPMI medium supplemented with 5% (v/v) fetal bovine serum. All the media was additionally supplemented with 100 units/mL of penicillin, 100µg/mL of streptomycin, 4.5 g/L glucose, 0.11g/L sodium pyrubate and 2mM glutamine and the cells were grown at 37°C in 5% CO2 atmosphere with 80% relative humidity.
The old media was removed, the cells were washed with PBS (phosphate-buffered saline) and fresh media was added. […] Control cells were treated with the same DMSO concentrations. […] After 3 hours, the fluorescence was quantified using a fluorescence microplate reader (Biotek, FLx800™) at the respective excitation and emission wavelength of 560 and 590 nm. Resazurin becomes fluorescent under mitochondrial reduction and its emission directly correlates with the metabolic stability of the cells. […] All measurements were performed at least in triplicate (see table 1).
A general note: The colour change of resazurin is a common sign of viable cells or microbes.

Our source for the IC50 and GI50 values is EP2924039A1, “2-Amino-1-phenyl-pyrrolo[3,2-b]quinoxaline-3-carboxamide derivates” (Universität Zürich, priority 2014, dated 2015).

`NC(=O)c1c(N)n(-c2cccc(NC(=O)c3cccc(C(F)(F)F)c3)c2)c2nc3ccccc3nc12` [Compound 10d, 2-amino-1-(3-(3-(trifluoromethyl)benzamido)phenyl)-1H-pyrrolo[2,3-b]quinoxaline-3-carboxamide]: at full-length human EphB4, the half-maximal inhibitory concentration (IC50) amounted to 20 nM. This compound registered a GI50 in test [1] of 13400 nM.
As for `NC(=O)c1c(N)n(-c2cccc(C(=O)Nc3cccc(C(F)(F)F)c3)c2)c2nc3ccccc3nc12` [Compound 10c, 2-amino-1-(3-((3-(trifluoromethyl)phenyl)carbamoyl)phenyl)-1H-pyrrolo[2,3-b]quinoxaline-3-carboxamide], the IC50 on full-length human EphB4 is 16 nM.

Broadly, the IC50 is the point on the concentration scale where inhibition reaches its midpoint. As a reminder, the GI50 is the concentration giving 50% growth inhibition.
